Test results from patent US11453640B2, “Small molecules for disrupting the super elongation complex and inhibiting transcription elongation for cancer therapy” (NORTHWESTERN UNIVERSITY, priority 2018, dated 2022).

Experiments:
[1] = test system: heat shock responsive genes in Drosophila S2 cells; experiment: Heat shock induction in Drosophila S2 cells; assay type: cell-based; conditions: 20 μM
Description: FIG. 5. SEC inhibitors block transcription elongation in SEC-dependent rapid response models. (A-B) Genome browser tracks of Pol II ChIP-seq at the FOS, HSPD1 and HSPE1 genes after 1 hr heat shock of HCT-116 cells treated with vehicle (DMSO) or the indicated SEC inhibitors. HCT-116 cells were pretreated with inhibitors for 5 hr at 37° C. before exchanging medium with conditioned 42° C. medium. Dark and light colors indicate the 37 and 42° C. conditions, respectively. (C) Genome-wide identification of heat shock-induced genes with fold change of reads per million in gene bodies and pausing index. Red dots are the 136 heat shock-induced genes according to Pol II signals (fold change of reads per million in gene bodies >1.5 and pausing index decreased >1.5-fold in the DMSO-treated condition). […] Box plot analysis depicts the log2 fold changes of reads per million in gene bodies (E) (y axis) after heat shock with pretreatment of vehicle or SEC inhibitors. […] S2 cells were heat shocked at 37° C. with and without 20 μM SEC inhibitors for 6 hr (left panel). The statistical analysis was performed with the Wilcoxon test.
Heat Shock Induction. Heat shock of mammalian cells was performed using ˜70-80% confluent HCT-116 cells by adding pre-heated (42° C.) conditioned media collected from identically growing cells (Mahat et al., 2016b). The heat shock cells were incubated at 42° C. for 1 hour. […]

MDA231-LM2 cells = experiment: Colony formation of MDA231-LM2 cells in vitro; assay type: cell-based; conditions: 5 days
Description: FIG. 14, related to FIG. 7. SEC disruptors delay tumor progression and improve survival of MDA231-LM2 tumor mice. (A) KL-1 and KL-2 inhibit the colony formation of MDA231-LM2 cells in vitro. 5×10^3 MDA231-LM2 cells were seeded in 6-well plates and treated with KL-1 or KL-2 at the indicated doses for 5 days. Crystal violet staining was performed to stain the colonies. (B) KL-1 and KL-2 induce apoptosis in MDA231-LM2 cells. Bar graph depiction of Annexin V positive MDA231-LM2 cells after 24 hr of KL-1 and KL-2 treatments at the indicated concentrations. Data are represented as Mean+/−SD. […] Each individual line indicates the weights of each mouse during toxicity test.

MDA231-LM2 tumor = MDA231-LM2 tumor model in athymic nude mice; assay type: in vivo; conditions: 50 mg/kg once daily, 15 intraperitoneal injections
Description: FIG. 7. SEC disruptors delay tumor progression and improve survival of MDA231-LM2 tumor mice. (A) Schematic of the development of MDA231-LM2 tumors in athymic nude mice (Wang et al., 2017). 4×10^6 MDA231-LM2 cells were inoculated into the fat pads of nude mice. 17 days after injection, when the tumor reached 100 mm^3, mice were divided randomly into three groups. Drug treatments were performed with once daily with 50 mg/kg KL-1, 10 mg/kg KL-2 or PBS (vehicle) for a total of 15 intraperitoneal injections. (B-C) KL-1 and KL-2 delay the tumor growth in the MDA231-LM2 tumor mouse model. The average tumor sizes of the vehicle (n=6), KL-1 (n=7), and KL-2 (n=5) treated groups were plotted from day 5 to day 36 after inoculation (B). Representative tumors sizes are shown (C). […] A 2-way unpaired student's t-test was used for statistical analysis. (E) Kaplan-Meier survival curves of vehicle, KL-1, and KL-2 treated nude mice transplanted with 4×10^6MDA231-LM2 cells. 17 days after inoculation, vehicle (n=6), KL-1 (n=7), and KL-2 (n=5) were administered daily for 15 intraperitoneal injections. Mice were euthanized when the tumor size reached 1000 mm^3. Thep values were calculated using the log-rank test.
MDA231-LM2 Tumor Model. […] The tumor sizes were measured twice a week and the mice were euthanized when the tumor size reached 1000 mm^3.

COc1cccc(C(=O)CC(=O)C(=O)Nc2cc(Cl)ccc2C)c1 [KL-1, N-(5-chloro-2-methylphenyl)-4-oxo-4-(3-methoxyphenyl)-2-oxobutanamide]
heat shock induction of the 215 heat shock responsive genes [1]: attenuated heat shock induction | colony formation capability (MDA231-LM2 cells): could inhibit the colony formation capability | survival of the recipient mice (MDA231-LM2 tumor): significantly extended survival | tumor progression (tumor sizes) (MDA231-LM2 tumor): delayed tumor progression
